Results on 13 compounds are retold here after ChEMBL document CHEMBL5518183, “Broad-spectrum antiviral strategy: Host-targeting antivirals against emerging and re-emerging viruses” (Eur J Med Chem, 2024).

Assay [1] deals with Human immunodeficiency virus 1. Briefly: Antiviral activity against HIV-1 infected in human MT4 cells assessed as reduction in virus induced cytopathic effect incubated for 5 days by Cell Titer Glo luminescent assay. Type of assay: functional, organism-based. Particulars: Human immunodeficiency virus 1, MT4, 120 h.
The subject of a further assay is Enterovirus A71. The assay can be described thus: Antiviral activity against human EV71 infected in HEK293 cells assessed as reduction in viral replication at MOI of 1 incubated for 48 hrs by luciferase assay. Type of assay: functional, organism-based. Particulars: Enterovirus A, HEK293, 48 h.
For assay [2], the target named is Virion infectivity factor (Human immunodeficiency virus type 1 group M subtype B (isolate NY5)(HIV-1), UniProt P12504). The assay can be described thus: Inhibition of HIV1 Vif. Also on record: species or system Human immunodeficiency virus 1.
A further assay concerns Monkeypox virus. Briefly: Antiviral activity against Monkeypox virus V79-1-005 infected in Vero cells assessed as reduction in viral replication measured after 4 days by colorimetric assay. Type of assay: functional, organism-based. Particulars: V79-1-005, Vero, 96 h.
For the next assay, the system named is Caco-2. Briefly: Cytotoxicity against human Caco-2 cells assessed as reduction in cell growth measured fpr 48 hrs by MTT assay. Type of assay: functional.
Assay [3] relates to SARS-CoV-2. The assay can be described thus: Antiviral activity against SARS-CoV-2 infected in African green monkey Vero E6 cells assessed as inhibition of viral replication. Type of assay: functional, organism-based. Particulars: Severe acute respiratory syndrome coronavirus 2, Vero C1008.
For assay [4], the system named is SARS-CoV-2. The assay can be described thus: Antiviral activity against SARS-CoV-2 infected in BALB/c mouse assessed as survival rate at 10 uM measured after 3 to 5 days. Type of assay: functional, Severe acute respiratory syndrome coronavirus 2. The conditions noted are these: time 3-5 day.
A further assay concerns Hepatitis B virus. Briefly: Antiviral activity against HBV genotype A infected in human HepG2 cells assessed as inhibition of viral replication. Type of assay: functional, organism-based.
Assay [5] deals with SARS-CoV-2. The assay can be described thus: Antiviral activity against SARS-CoV-2 USA-WA1/2020 infected in human A549-ACE2 cells assessed as reduction in viral replication. Type of assay: functional, organism-based. Particulars: Severe acute respiratory syndrome coronavirus 2, USA-WA1/2020, A549-ACE2.
The subject of another assay is West Nile virus. The assay can be described thus: Antiviral activity against West Nile virus infected in African green monkey Vero cells assessed as inhibition of virus induced cytopathic effect incubated for 48 hrs by MTS assay. Type of assay: functional, organism-based. Background: Damage to the host cells serves as the signal in cytopathic effect assays.
In the next assay the test system is MT4. The assay can be described thus: Cytotoxicity against human MT4 cells assessed as reduction in cell viability incubated for 72 hrs by celltiter glo assay. Type of assay: functional. (ATP-based viability assays read luminescence as a measure of living cells.)
For assay [6], the system named is SARS-CoV-2. Briefly: Antiviral activity against SARS-CoV-2 infected in […] Vero cells assessed as reduction in viral replication incubated for 24 hrs by Immunofluorescence assay. Type of assay: functional, organism-based. Particulars: Severe acute respiratory syndrome coronavirus 2, Vero.
Assay [7] has as its system Middle East respiratory syndrome-related coronavirus. The assay can be described thus: Antiviral activity against MERS-CoV infected in human Calu-3 cells assessed as inhibition of viral growth. Type of assay: functional, organism-based.
Assay [8] deals with SARS-CoV-2. The assay can be described thus: Antiviral activity against SARS-CoV-2 infected in African green monkey Vero E6 cells assessed as inhibition of virus growth. Particulars: Severe acute respiratory syndrome coronavirus 2, Vero C1008. Type of assay: functional, organism-based.
In assay [9] the test system is SARS-CoV-2. The assay can be described thus: Antiviral activity against SARS-CoV-2 infected in African green monkey Vero cells assessed as reduction in viral replication incubated for 24 hrs by Immunofluorescence assay. Type of assay: functional, organism-based. The conditions noted are these: Severe acute respiratory syndrome coronavirus 2, Vero.
Another assay relates to Human coronavirus 229E. Briefly: Antiviral activity against HCoV-229E infected in human MRC5 cells incubated for 3 days measured by crystal violet staining based plaque counting analysis. Type of assay: functional, organism-based. Particulars: MRC5, 72 h.
For assay [10], the system named is Middle East respiratory syndrome-related coronavirus. Briefly: Antiviral activity against MERS-CoV infected in human MRC5 cells assessed as reduction in viral replication measured after 48 hrs by qRT-PCR assay. Type of assay: functional, organism-based. Particulars: MRC5, 48 h.
Assay [11] deals with SARS-CoV-2. The assay can be described thus: Antiviral activity against SARS-CoV-2 infected in African green monkey Vero E6 cells assessed as reduction in viral replication incubated for 24 hrs by Immunofluorescence assay. Type of assay: functional, organism-based. The conditions noted are these: Severe acute respiratory syndrome coronavirus 2, Vero C1008, 24 h.

Where a name gives a salt, the structure may show the parent alone.

Virion infectivity factor, sequence (P12504 1-150 limits assumed): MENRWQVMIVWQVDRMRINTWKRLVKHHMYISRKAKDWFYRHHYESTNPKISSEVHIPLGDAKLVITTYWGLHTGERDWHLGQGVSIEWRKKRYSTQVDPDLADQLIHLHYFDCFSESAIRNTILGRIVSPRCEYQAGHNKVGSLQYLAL
Virion infectivity factor, sequence (P12504 151-192 limits assumed): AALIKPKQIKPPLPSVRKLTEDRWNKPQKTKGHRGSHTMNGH

What is called EC50 is the concentration that produces a half-maximal response. As for `Oc1ccccc1/C=N/Nc1nc(Nc2ccc(F)cc2)nc(Nc2ccc(F)cc2)n1`, in assay [1], the EC50 was 2 nM.
In general, IC50 refers to the concentration at which inhibition is half-maximal. As for `O=C(CCNC(=O)c1ccc(OC(F)(F)F)cc1)C[C@H]1CCCc2ccccc21`, in the assay on Enterovirus A71, the half-maximal inhibitory concentration (IC50) stood at 66 nM.
For `CCOC(=O)c1cc(C(=O)c2ccc3ccccc3c2)n2ccc(C(=O)c3ccncc3)cc12`, the IC50 in [2] was 11000 nM.
Take `CC[C@H](CC#N)OC(=O)N[C@@H](C)c1cccc(NC(=O)Nc2ccc(-c3cnco3)c(OC)c2)c1` [AVN-944]: in the assay on Monkeypox virus, the EC50 was 34.5 nM.
In general, CC50 refers to the concentration that lowers cell viability or growth by half. With `Cc1c(-c2ccc(-c3ccccc3F)cc2)nc2ccc(F)cc2c1C(=O)O` [BREQUINAR], the 50% cytotoxic concentration (CC50) with Caco-2 stood at 231000 nM. In the assay with SARS-CoV-2 [3], the EC50 amounted to 123 nM.
For the compound `CN(C)C(=O)COC(=O)Cc1ccc(OC(=O)c2ccc(NC(=N)N)cc2)cc1.CS(=O)(=O)O` [CAMOSTAT MESILATE], the Activity in the assay on SARS-CoV-2 [4] stood at 60%.
On to `C/C=C/C[C@@H](C)[C@@H](O)[C@H]1C(=O)N[C@@H](CC)C(=O)N(C)CC(=O)N(C)[C@@H](CC(C)C)C(=O)N[C@@H](C(C)C)C(=O)N(C)[C@@H](CC(C)C)C(=O)N[C@@H](C)C(=O)N[C@H](C)C(=O)N(C)[C@@H](CC(C)C)C(=O)N(C)[C@@H](CC(C)C)C(=O)N(C)[C@@H](C(C)C)C(=O)N1C` [CYCLOSPORINE], for which the half-inhibitory concentration (IC50) in the assay on Hepatitis B virus turned out to be 5780 nM.
For `COc1ccc([C@H]2c3[nH]c4ccc(Cl)cc4c3CCN2C(=O)Oc2ccc(Cl)cc2)cc1` [EMVODODSTAT], in the assay on SARS-CoV-2 [5], the EC50 worked out at 2 nM.
In the case of `Cc1oncc1C(=O)Nc1ccc(C(F)(F)F)cc1` [LEFLUNOMIDE], in the assay on West Nile virus, the EC50 was 35000 nM. Further, the CC50 in the assay with MT4 stood at 178000 nM.
Take `N=C(N)Nc1ccc(C(=O)Oc2ccc3cc(C(=N)N)ccc3c2)cc1` [NAFAMOSTAT MESYLATE]: the figures for the EC50 (in the assay on SARS-CoV-2 [6]; in [7]; in the assay with SARS-CoV-2 [8]) were 5 nM, 5.9 nM and 1.4 nM, respectively.
For the compound `CC[C@H](C)[C@H]1NC(=O)[C@@H](NC(=O)[C@@H](CC(C)C)N(C)C(=O)[C@@H]2CCCN2C(=O)C(C)=O)[C@@H](C)OC(=O)[C@H](Cc2ccc(OC)cc2)N(C)C(=O)[C@@H]2CCCN2C(=O)[C@H](CC(C)C)NC(=O)[C@@H](C)C(=O)[C@H](C(C)C)OC(=O)C[C@@H]1O` [PLITIDEPSIN], the 50% effective concentration (EC50) in the assay with SARS-CoV-2 [9] was 0.7 nM.
On to `COC(=O)[C@H]1[C@@H](O)[C@@]2(O)c3c(OC)cc(O[C@@H]4O[C@@H]([C@H](O)CO)CO[C@H]4OC)cc3O[C@@]2(c2ccc(OC)cc2)[C@@H]1c1ccccc1` [SILVESTROL], for which the EC50 in the assay with Human coronavirus 229E came out at 3 nM; in assay [10] it was 1.3 nM.
In the case of `COc1cc2c(c(OC)n1)[C@]1(O)[C@H](O)[C@H](CN(C)C)[C@@H](c3ccccc3)[C@]1(c1ccc(C#N)cc1)O2` [ZOTATIFIN], the EC50 with SARS-CoV-2 [11] is 37 nM.
